According to article PMC9497675, “Explore the Interaction between Ellagic Acid and Zein Using Multi-Spectroscopy Analysis and Molecular Docking” (Foods, 2022):

Molecular target: T1, zein
T1 construct: gene alpha-zein
Assay: intrinsic fluorescence quenching (ex […] nm), modified Stern-Volmer double-log plot
Assay type: binding, Zea mays
Conditions: 298 K; 0.05 mg/mL zein in 70% aqueous ethanol; EA stock in 50% methanol; n = 1.2786; apparent constant

SMILES: O=c1oc2c(O)c(O)cc3c(=O)oc4c(O)c(O)cc1c4c23 [EA, ellagic acid]
- KA (L/mol): 9.47 × 10^2
